According to patent publication US9994812B2, “Systems and method for engineering muscle tissue” (UNIVERSITY OF WASHINGTON THROUGH ITS CENTER FOR …, priority 2012, dated 2018):

Legend:
Assay type in all cases: cell-based, human
[1] = test system: hESC-derived cardiomyocytes (hESC-CMs); assay: High throughput cardiotoxicity profiling, live/dead imaging (Calcein-AM / EtBr); conditions: doxorubicin, 24 hrs
Protocol: FIGS. 16A-16B show high throughput cardiotoxicity profiling. To test the capacity of the ANP and system to identify cardiotoxic drugs, hESC-derived cardiomyocytes (hESC-CMs) were treated with doxorubicin for 24 hrs and then imaged using the high-throughput Applied Precision DeltaVision system.

[2] = test system: control IMR90 cells (IMR90 hiPSC-derived cardiomyocytes); assay: Sarcomere organization on nanotextured platforms, control cells; conditions: addition of isoproterenol
Excerpt: (§1) FIG. 34A-34D show nanotextured platforms facilitate maturation of hiPSC-derived cardiomyocytes allowing them to be used as effective disease models for drug testing against cardiomyopathies, and as in vitro cardiac disease models. […] Since nanotextures allow physiological organization of sarcomeres, it serves as a disease model to test the effect of a drug on a diseased cardiomyocyte.

[3] = test system: MHY7 mutated iPSC-derived CMs; assay: Sarcomere organization on nanotextured platforms, disease model; conditions: addition of isoproterenol
Excerpt: as §1

[4] = test system: cardiomyocytes derived from healthy, and diseased hiPSC cells; assay: Drug testing on ANP, action potential profile; conditions: addition of Verapamil
[5] = test system: hESC-derived cardiomyocyte cultures; assay: Action potential time course traces with 1 Hz pacing on the nanotextured substrate; conditions: 0, 20 and 40 μM, 4 seconds
Protocol: Representative action potential time course traces for 4 seconds in the presence of 1 Hz pacing in the presence of carboxelone, a GAP junction inhibitor at 0 μM (FIG. 19A), 20 μM (FIG. 19B), and 40 μM (FIG. 19C) are shown.

[6] = test system: paced hiPSC-derived cardiomyocytes monolayer; assay: Optical mapping of conduction velocity vectors and spatial activation map; conditions: 40 μM vs 0 μM
hES-CM monolayers = assay: Action potential profile of monolayers on the ANP polymer substrate

`COc1cccc2c1C(=O)c1c(O)c3c(c(O)c1C2=O)C[C@@](O)(C(=O)CO)C[C@@H]3O[C@H]1C[C@H](N)[C@H](O)[C@H](C)O1` [doxorubicin] was tested, and the “percentage of dead hESC-CMs” value [1] was “statistically significant increase”.

With `CC(C)NCC(O)c1ccc(O)c(O)c1` (stereo not drawn) [isoproterenol] the sarcomeric organization [2] was “does not result in loss of sarcmeric organization” and the sarcomere organization [3] was “results in loss of sarcomere organization”.

For `COc1ccc(CCN(C)CCCC(C#N)(c2ccc(OC)c(OC)c2)C(C)C)cc1OC` (stereo not drawn) [Verapamil], the AP profile [4] was “causes distortions in AP profile”.

For `CC1(C)[C@@H](OC(=O)CCC(=O)O)CC[C@]2(C)[C@H]3C(=O)C=C4[C@@H]5C[C@@](C)(C(=O)O)CC[C@]5(C)CC[C@@]4(C)[C@]3(C)CC[C@@H]12` [carboxelone], the “effect on action potential time course traces” value [5] was “dose dependent”, the conduction velocity vectors [6] was “decrease in conduction across the tissue” and the “spatial activation map of electrical activity” value [6] was “decrease in electrical activity of the monolayer”.

`COc1cc(N)c(Cl)cc1C(=O)NC1CCN(CCCOc2ccc(F)cc2)CC1OC` (stereo not drawn) [cisapride] was tested, and the AP profile (hES-CM monolayers; K+ channel inhibitor on hES-CM monolayers) was “distortions in AP profile” and the “prolongation of action potential” value (hES-CM monolayers; addition of cisapride for 2 minutes) was “prolongation of action potential in a significant manner”.
